IC50 data for 18 compounds are collected here from patent publication US20150011751A1, “NOVEL TRIAZINE DERIVATIVE” (CARNA BIOSCIENCES, INC., priority 2012, published 2015).

This assay has as its target Dephosphorylated BTK (Homo sapiens, UniProt Q06187). As to the kind of experiment: Test of activity inhibition against dephosphorylated BTK (mobility shift assay).

Structures can show the parent of a compound that is named as a salt.

Sequence of Dephosphorylated BTK (Q06187 whole entry): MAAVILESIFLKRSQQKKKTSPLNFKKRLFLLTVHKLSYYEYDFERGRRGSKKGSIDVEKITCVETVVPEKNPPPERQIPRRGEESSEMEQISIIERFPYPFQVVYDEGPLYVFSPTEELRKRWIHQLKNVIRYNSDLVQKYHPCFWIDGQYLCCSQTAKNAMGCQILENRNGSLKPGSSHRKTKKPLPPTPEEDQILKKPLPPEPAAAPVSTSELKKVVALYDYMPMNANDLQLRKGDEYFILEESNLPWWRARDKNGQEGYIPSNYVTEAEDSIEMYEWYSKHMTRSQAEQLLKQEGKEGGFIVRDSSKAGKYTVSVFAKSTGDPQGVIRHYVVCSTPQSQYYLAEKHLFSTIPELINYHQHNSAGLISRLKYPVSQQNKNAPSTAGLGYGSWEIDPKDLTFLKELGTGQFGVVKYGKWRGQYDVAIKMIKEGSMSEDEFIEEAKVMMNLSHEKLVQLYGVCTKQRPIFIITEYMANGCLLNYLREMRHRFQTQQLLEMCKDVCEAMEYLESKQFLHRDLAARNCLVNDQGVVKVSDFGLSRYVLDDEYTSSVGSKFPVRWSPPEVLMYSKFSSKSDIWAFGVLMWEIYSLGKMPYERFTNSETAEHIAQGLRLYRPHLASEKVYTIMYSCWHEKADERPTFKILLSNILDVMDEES
Method: Kinase activity was measured by a mobility shift assay (MSA) method using QuickScout Screening Assist (trademark) MSA (commercially available kit, manufactured by Carna Biosciences, Inc.). FITC-labeled SRCtide peptide supplied with the kit was used as a substrate of a kinase reaction.
IC50 value was calculated by regression analysis of the inhibition ratio and the test compound concentration (logarithm).
Dephosphorylated BTK was obtained by adding a A protein phosphatase (Code No. P0753S, manufactured by New England BioLabs Inc.) and MnCl2 to a biotinylated BTK protein BTN-BTK (manufactured by Carna Biosciences, Inc.) enzyme solution so as to adjust the concentrations to 10 U/μg and 2 mM, respectively, reacting the mixture at 4° C. overnight, removing the A protein phosphatase through anti-[sequence]-tag antibody agarose gel chromatography, and performing buffer exchange using 10DG Desalting Column.

What is called IC50 is the concentration that gives 50% inhibition. `Nc1nc(Nc2ccc(N3CCC(O)CC3)cc2)nc(-c2cccc(N3CCc4cc(C5CC5)cc(F)c4C3=O)c2CO)n1` [Example 52, 2-[3-(4-Amino-6-{[4-(4-hydroxypiperidin-1-yl)phenyl]amino}-1,3,5-triazin-2-yl)-2-(hy-droxymethyl)phenyl]-6-cyclopropyl-8-fluoro-3,4-dihydroisoquinolin-1(2H)-one]: the IC50 stood at 1.6 nM.

With `Nc1nc(Nc2ccc(N3CCNCC3)cc2)nc(-c2cccc(NC(=O)c3cc4c(s3)CCCC4)c2CO)n1` [Example 147, N-[3-(4-Amino-6-{[4-(piperazin-1-yl)phenyl]amino}-1,3,5-triazin-2-yl)-2-(hydroxymeth-yl)phenyl]-4,5,6,7-tetra-hydrobenzo[b]thio-phene-2-carboxamide], the IC50 was 0.3 nM.

On to `Nc1nc(Nc2cnn(CC(=O)N3CCOCC3)c2)nc(-c2cccc(N3CCc4cc(C5CC5)cc(F)c4C3=O)c2CO)n1` [Example 253, 2-[3-(4-Amino-6-{[1-(2-morpholino-2-oxoeth-yl)-1H-pyrazol-4-yl]ami-no}-1,3,5-triazin-2-yl)-2-(hydroxymethyl)phenyl]-6-cyclopropyl-8-fluoro-3,4-dihydro-isoquinolin-1(2H)-one], for which the IC50 was determined as 0.8 nM.

For the compound `Nc1nc(Nc2ccc(OCCN3CCOCC3)cc2)nc(-c2cccc(N3CCc4cc(C5CC5)cc(F)c4C3=O)c2CO)n1` [Example 196, 2-[3-(4-Amino-6-{[4-(2-morpholinoethoxy)phe-nyl]amino}-1,3,5-tri-azin-2-yl)-2-(hydroxy-methyl)phenyl]-6-cyclo-propyl-8-fluoro-3,4-dihydroisoquinolin-1(2H)-one formate], the IC50 worked out at 3.4 nM.

As for `CC(C)(C)c1ccc(C(=O)Nc2cccc(-c3nc(N)nc(Nc4ccc(Cn5ccccc5=O)cc4)n3)c2CO)cc1` [Example 173, N-{3-[4-Amino-6-({4-[(2-oxopyridin-1(2H)-yl)methyl]phenyl}amino)-1,3,5-triazin-2-yl]-2-(hydroxymethyl)phe-nyl}-4-(tert-butyl) benzamide], the IC50 came out at 0.6 nM.

For `Nc1nc(Nc2cnn(C3CC3)c2)nc(-c2cccc(N3CCc4cc(C5CC5)cc(F)c4C3=O)c2CO)n1` [Example 238, 2-(3-{4-Amino-6-[(1-cyclo-propyl-1H-pyrazol-4-yl)amino]-1,3,5-tri-azin-2-yl}-2-(hydroxy-methyl)phenyl)-6-cyclo-propyl-8-fluoro-3,4-dihydroisoquinolin-1 (2H)-one], the IC50 worked out at 0.9 nM.

Consider `Cc1c(NC(=O)c2ccc(C(C)(C)C)cc2)cccc1-c1nc(N)nc(Nc2ccc(CN3CCOCC3)cc2)n1` [Example 38, N-[3-(4-Amino-6-{[4-(mor-pholinomethyl)phe-nyl]amino}-1,3,5-triazin-2-yl)-2-methylphe-nyl]-4-(tert-butyl)benz-amide], for which the IC50 turned out to be 1.2 nM.

Regarding `Nc1nc(Nc2cnn(C3CCOCC3)c2)nc(-c2cccc(N3CCc4cc(C5CC5)cc(F)c4C3=O)c2CO)n1` [Example 218, 2-[3-(4-Amino-6-{[1-(tetra-hydro-2H-pyran-4-yl)-1H-pyrazol-4-yl]amino}-1,3,5-triazin-2-yl)-2-(hydroxymethyl)phenyl]-6-cycloprop-yl-8-fluoro-3,4-dihydro-isoquinolin-1(2H)-one], the IC50 is 0.2 nM.

For `CN1CCN(C)C(c2ccc(Nc3nc(N)nc(-c4cccc(N5CCc6cc(C7CC7)cc(F)c6C5=O)c4CO)n3)cc2)C1=O` (stereo not drawn) [Example 47, 2-[3-(5-Amino-6-{[4-(1,4-dimethyl-3-oxopipera-zin-2-yl)phenyl]ami-no}-1,3,5-triazin-2-yl)-2-(hydroxymethyl)phenyl]-6-cyclopropyl-8-fluoro-3,4-dihydro-isoquinolin-1(2H)-one], the IC50 is 1.6 nM.

With `Nc1nc(Nc2ccc(N3CCCC(O)C3)cc2)nc(-c2cccc(N3CCc4cc(C5CC5)cc(F)c4C3=O)c2CO)n1` (stereo not drawn) [Example 53, 2-[3-(4-Amino-6-{[4-(3-hydroxypiperidin-1-yl)phenyl]amino}-1,3,5-triazin-2-yl)-2-(hy-droxymethyl)phenyl]-6-cyclopropyl-8-fluoro-3,4-dihydroisoquinolin-1(2H)-one], the IC50 was determined as 1.8 nM.

Regarding `Nc1nc(Nc2ccc(OC3CCOCC3)c(F)c2)nc(-c2cccc(N3CCc4cc(C5CC5)cc(F)c4C3=O)c2CO)n1` [Example 194, 2-{3-[4-Amino-6-({3-fluoro-4-[(tetrahydro-2H-pyran-4-yl)oxy]phe-nyl}amino)-1,3,5-tria-zin-2-yl]-2-(hydroxy-methyl)phenyl}-6-cyclo-propyl-8-fluoro-3,4-dihydroisoquinolin-1(2H)-one], the IC50 amounted to 0.9 nM.

For `CC(C)(C)n1cc(Nc2nc(N)nc(-c3cccc(N4CCc5cc(C6CC6)cc(F)c5C4=O)c3CO)n2)cn1` [Example 241, 2-[3-(4-Amino-6-{[1-(tert-butyl)-1H-pyrazol-4-yl]amino}-1,3,5-tri-azin-2-yl)-2-(hydroxy-methyl)phenyl]-6-cyclo-propyl-8-fluoro-3,4-dihydroisoquinolin-1(2H)-one], the IC50 came to 0.6 nM.

Regarding `Nc1nc(Nc2ccc(Cn3cccn3)cc2)nc(-c2cccc(N3CCc4cc(C5CC5)cc(F)c4C3=O)c2CO)n1` [Example 50, 2-{3-[4-({4-[(1H-Pyra-zol-1-yl)methyl]phenyl}amino)-6-amino-1,3,5-triazin-2-yl]-2-(hy-droxymethyl)phenyl}-6-cyclopropyl-8-fluoro-3,4-dihydroisoquino-lin-1(2H)-one], the IC50 is 1 nM.

For `Cc1c(NC(=O)c2ccc(C(C)(C)C)cc2)cccc1-c1nc(N)nc(Nc2ccc(N3C[C@@H](C)O[C@@H](C)C3)cc2)n1` [Example 85, N-[3-(4-Amino-6-{[4-((2S, 6R)-2,6-dimethyl-morpholino)phenyl]ami-no}-1,3,5-triazin-2-yl)-2-methylphenyl]-4-(tert-butyl)benzamide], the IC50 was found to be 5.8 nM.

As for `CS(=O)(=O)n1cc(Nc2nc(N)nc(-c3cccc(N4CCc5cc(C6CC6)cc(F)c5C4=O)c3CO)n2)cn1` [Example 233, 2-[3-(4-Amino-6-{[1-(meth-ylsulfonyl)-1H-py-razol-4-yl]amino}-1,3,- 5-triazin-2-yl)-2-(hy-droxymethyl)phenyl]-6-cyclopropyl-8-fluoro-3,4-dihydroisoquino-lin-1(2H)-one], the concentration for half-maximal inhibition (IC50) is 4.2 nM.

For the compound `Nc1nc(Nc2cnn(C3CCNCC3)c2)nc(-c2cccc(N3CCc4cc(C5CC5)cc(F)c4C3=O)c2CO)n1` [Example 223, 2-[3-(4-Amino-6-{[1-(piperidin-4-yl)-1H-py-razol-4-yl]amino}-1,3,5-triazin-2-yl)-2-(hy-droxymethyl)phenyl]-6-cyclopropyl-8-fluoro-3,4-dihydro-isoquinolin-1(2H)-one], the IC50 was 0.6 nM.

For `Cc1c(NC(=O)c2ccc(C(C)(C)C)cc2)cccc1-c1nc(N)nc(Nc2ccc(N3CCC(N4CCOCC4)CC3)cc2)n1` [Example 80, N-[3-(4-Amino-6-{[4-(4-morpholinopiperidin-1-yl)phenyl]amino}-1,3,5-triazin-2-yl)-2-methylphenyl]-4-(tert-butyl)benzamide], the IC50 came to 2.1 nM.

As for `CC(C)(C)c1ccc(C(=O)Nc2cccc(-c3nc(N)nc(Nc4cccc(C(=O)O)c4)n3)c2CO)cc1` [Example 153, 3-[(4-Amino-6-{3-[4-(tert-butyl)benzamido]-2-(hydroxymethyl)phe-nyl}-1,3,5-triazin-2-yl)amino]benzoic acid], the IC50 was found to be 4.9 nM.
